Data from US11299488B2, “Five membered-aminoheterocycle and 5,6-or 6,6-membered bicyclic aminoheterocyclic inhibitors of rock for the treatment of heart failure” (BRISTOL-MYERS SQUIBB COMPANY, priority 2017, dated 2022).

Molecular target: ROCK2 (Homo sapiens (Human), UniProt O75116)
Experiment: ROCK assay (Caliper LABCHIP peptide phosphorylation, 5 μM ATP)
Type: biochemical
Procedure: The effectiveness of compounds of the present invention as ROCK inhibitors can be determined in a 30 μL assay containing 20 mM HEPES, pH 7.5, 20 mM MgCl2, 0.015% Brij-35, 4 mM DTT, 5 μM ATP and 1.5 μM peptide substrate (FITC-AHA-AKRRRLSSLRA-OH) (SEQ ID No. 1). Compounds were dissolved in DMSO so that the final concentration of DMSO was <2%, and the reaction was initiated with Rho kinase variants. After incubation, the reaction was terminated by the addition of EDTA and the phosphorylated and non-phosphorylated peptides separated using a LABCHIP® 3000 Reader (Caliper Life Sciences). […] Compounds were tested in dose-response format, and the inhibition of kinase activity was calculated at each concentration of compound. The inhibition data were fit using a curve-fitting program to determine the IC50; i.e., the concentration of compound required to inhibit 50% of kinase activity. Representative Examples were tested in the ROCK assay described above and found having ROCK inhibitory activity. A range of ROCK inhibitory activity (IC50 values) of ≤50 μM (50000 nM) was observed. Table A below lists the ROCK IC50 values measured for the following examples.

Chain of ROCK2 (O75116 whole entry, species assumed): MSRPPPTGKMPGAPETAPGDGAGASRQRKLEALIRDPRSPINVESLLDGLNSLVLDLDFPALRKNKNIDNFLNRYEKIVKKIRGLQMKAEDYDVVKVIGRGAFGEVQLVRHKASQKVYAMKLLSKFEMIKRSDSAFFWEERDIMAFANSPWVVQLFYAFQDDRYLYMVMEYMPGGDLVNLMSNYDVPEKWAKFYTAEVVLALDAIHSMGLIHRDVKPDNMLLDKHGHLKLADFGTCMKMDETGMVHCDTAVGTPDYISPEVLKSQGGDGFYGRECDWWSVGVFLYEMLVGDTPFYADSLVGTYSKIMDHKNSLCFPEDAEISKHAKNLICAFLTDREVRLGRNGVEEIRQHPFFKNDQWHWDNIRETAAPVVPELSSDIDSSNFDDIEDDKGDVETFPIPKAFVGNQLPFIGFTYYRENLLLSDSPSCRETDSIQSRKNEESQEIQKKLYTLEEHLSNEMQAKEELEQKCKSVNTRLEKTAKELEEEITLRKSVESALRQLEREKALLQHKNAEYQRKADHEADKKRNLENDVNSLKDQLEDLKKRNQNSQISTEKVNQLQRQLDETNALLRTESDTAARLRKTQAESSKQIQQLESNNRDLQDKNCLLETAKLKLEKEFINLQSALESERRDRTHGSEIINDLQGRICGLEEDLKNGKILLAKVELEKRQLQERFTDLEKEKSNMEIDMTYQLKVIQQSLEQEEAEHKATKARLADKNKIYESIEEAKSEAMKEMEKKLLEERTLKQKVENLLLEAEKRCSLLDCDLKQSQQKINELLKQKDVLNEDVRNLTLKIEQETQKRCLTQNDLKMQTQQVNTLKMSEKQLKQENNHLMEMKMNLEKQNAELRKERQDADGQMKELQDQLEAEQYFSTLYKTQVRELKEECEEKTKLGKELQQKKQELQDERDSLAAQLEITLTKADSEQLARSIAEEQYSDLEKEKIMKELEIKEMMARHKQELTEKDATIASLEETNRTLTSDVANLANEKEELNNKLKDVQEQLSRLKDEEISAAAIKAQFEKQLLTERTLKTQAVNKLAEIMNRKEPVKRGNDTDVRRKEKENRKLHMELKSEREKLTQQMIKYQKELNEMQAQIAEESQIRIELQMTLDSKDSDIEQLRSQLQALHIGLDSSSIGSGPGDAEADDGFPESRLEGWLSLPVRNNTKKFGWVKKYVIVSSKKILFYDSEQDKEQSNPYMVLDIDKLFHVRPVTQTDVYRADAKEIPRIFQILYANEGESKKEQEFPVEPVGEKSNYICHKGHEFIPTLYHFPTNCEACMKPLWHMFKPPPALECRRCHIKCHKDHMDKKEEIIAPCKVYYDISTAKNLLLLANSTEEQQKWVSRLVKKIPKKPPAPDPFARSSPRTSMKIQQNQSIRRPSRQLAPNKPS

Molecule	IC50 [nM]
[H][C@]1(Oc2ncccc2C(N)=O)C[C@]2(C[C@@H](Nc3nccc(N4CCC(C(F)(F)F)CC4)n3)C2)C1 (stereo partly drawn) [Example 43, 2-(((2S,4s,6S)-6-((4-(4-(trifluoro-methyl)piperidin-1-yl)pyrimidin-2-yl)amino)spiro[3.3]heptan-2-yl)oxy) nicotinainide]	165
[H][C@]1(Oc2ncccc2C(N)=O)C[C@]2(C[C@@H](Nc3ccnc(N4CCC(C(F)(F)F)CC4)n3)C2)C1 (stereo partly drawn) [Example 65, 2-(((2S,4s,6S)-6-((2-(4-(trifluoro-methyl)piperidin-1-yl)pyrimidin-4-yl)amino)spiro[3.3]heptan-2-yl)oxy) nicotinamide]	964
[H][C@]1(Oc2ncccc2C(N)=O)C[C@]2(C[C@@H](Nc3ccnc(-c4cccc(C(=O)N(C)C)c4)n3)C2)C1 (stereo partly drawn) [Example 67, 2-(((2S,4s,6S)-6-((2-(3-(dimethyl-carbamoyl)phenyl)pyrimidin-4-yl)amino)spiro[3.3]heptan-2-yl)oxy) nicotinamide]	1170
Cn1c(N[C@H]2C[C@]3(C2)C[C@H](Oc2ncccc2C(N)=O)C3)nc2c(F)cccc21 (stereo partly drawn) [Example 14, 2-(((2S,4s,6S)-6-((4-fluoro-1-methyl-1H-benzo[d]imidazol-2-yl)amino)spiro[3.3]heptan-2-yl)oxy)nicotinamide]	320
2-(((2S,4r,6S)- 6-((2- ((S)-3- fluoro- pyrrolidin- 1- yl) pyrimidin-4- yl)amino) spiro[3.3] heptan-2- yl)oxy) nicotinamide [Example 69]	1560
[H][C@]1(Oc2ncccc2C(N)=O)C[C@]2(C[C@@H](Nc3ccnc(-c4cccc(F)c4)n3)C2)C1 (stereo partly drawn) [Example 70, 2-(((2S,4s,6S)-6-((2-(3-fluorophenyl)pyrimidin-4-yl)amino)spiro[3.3]heptan-2-yl)oxy) nicotinamide]	2240
[H][C@]1(Oc2ncccc2C(N)=O)C[C@]2(C[C@@H](Nc3ccnc(N4CCCC(F)(F)C4)n3)C2)C1 (stereo partly drawn) [Example 60, 2-(((2S,4s,6S)-6-((2-(3,3-difluoropiperidin-1-yl)pyrimidin-4-yl)amino)spiro[3.3]heptan-2-yl)oxy)nicotinamide]	220
[H][C@]1(Oc2ncccc2C(N)=O)C[C@]2(C[C@@H](Nc3nccc(N4CCC(F)(F)C4)n3)C2)C1 (stereo partly drawn) [Example 38, 2-(((2S,4s,6S)-6-((4-(3,3-difluoro-pyrrolidin-1-yl)pyrimidin-2-yl)amino)spiro[3.3]heptan-2-yl)oxy) nicotinamide]	388
[H][C@]1(Oc2ncccc2C(N)=O)C[C@]2(C[C@@H](Nc3nccc(-c4ccc(C#N)cc4)n3)C2)C1 (stereo partly drawn) [Example 48, 2-(((2S,4s,6S)-6-((4-(4-cyanophenyl)pyrimidin-2-yl)amino)spiro[3.3]heptan-2-yl)oxy) nicotinamide]	204
[H][C@]1(Oc2ncccc2C(N)=O)C[C@]2(C[C@@H](Nc3ccnc(N4CC(F)(F)C4)n3)C2)C1 (stereo partly drawn) [Example 68, 2-(((2S,4s,6S)-6-((2-(3,3-difluoro-azetidin-1-yl)pyrimidin-4-yl)amino)spiro[3.3]heptan-2-yl)oxy) nicotinamide]	1300
NC(=O)c1cccnc1O[C@H]1C[C@@]2(C[C@H](Nc3cnc4cc(F)ccc4n3)C2)C1 (stereo partly drawn) [Example 21, 2-(((2S,4s,6S)-6-((6-fluoroquinoxalin-2-yl)amino)spiro[3.3]heptan-2-yl)oxy)nicotinamide]	73
[H][C@]1(Oc2ncccc2C(N)=O)C[C@]2(C[C@@H](Nc3nccc(N4CC(F)(F)C4)n3)C2)C1 (stereo partly drawn) [Example 39, 2-(((2S,4s,6S)-6-((4-(3,3-difluoro-azetidin-1-yl)pyrimidin-2-yl)amino)spiro[3.3]heptan-2-yl)oxy) nicotinamide]	983
[H][C@]1(Oc2ncccc2C(N)=O)C[C@]2(C[C@@H](Nc3nccc(NCC(C)(C)CO)n3)C2)C1 (stereo partly drawn) [Example 45, 2-(((2S,4s,6S)-6-((4-((3-hydroxy-2,2-dimethyl-propyl)amino)pyrimidin-2-yl)amino)spiro[3.3]heptan-2-yl)oxy) nicotinamide]	678
COc1ccc2c(N[C@H]3C[C@]4(C3)C[C@H](Oc3ncccc3C(N)=O)C4)ncnc2c1 (stereo partly drawn) [Example 25, 2-(((2S,4s,6S)-6-((7-methoxy-quinazolin-4-yl)amino)spiro[3.3]heptan-2-yl)oxy) nicotinamide]	165
[H][C@]1(Oc2ncccc2C(N)=O)C[C@]2(C[C@@H](Nc3nccc(N4CCC(F)CC4)n3)C2)C1 (stereo partly drawn) [Example 40, 2-(((2S,4s,6S)-6-((4-(4-fluoro-piperidin-1-yl)pyrimidin-2-yl)amino)spiro [3.3]heptan-2-yl)oxy) nicotinamide]	378
NC(=O)c1cccnc1OC1CC2(CC(Nc3ncc4cc(Br)ccc4n3)C2)C1 [Example 35, 2-(((2S,4s,6S)-6-((6-bromo-quinazolin-2-yl)amino)spiro[3.3]heptan-2-yl)oxy) nicotinamide]	192

Molecule	IC50 [nM]
NC(=O)c1cccnc1O[C@H]1C[C@@]2(C[C@H](Nc3nc(-c4ccccc4)cs3)C2)C1 (stereo partly drawn) [Example 13, 2-(((2S,4s,6S)-6-((4-phenylthiazol-2-yl)amino)spiro[3.3]heptan-2-yl)oxy)nicotinamide]	96
[H][C@]1(Oc2ncccc2C(N)=O)C[C@]2(C[C@@H](Nc3ccnc(N4CCC(F)(F)C4)n3)C2)C1 (stereo partly drawn) [Example 62, 2-(((2S,4s,6S)-6-((2-(3,3-difluoro-pyrrolidin-1-yl)pyrimidin-4-yl)amino)spiro[3.3]heptan-2-yl)oxy) nicotinamide]	398
NC(=O)c1cccnc1O[C@H]1C[C@@]2(C[C@H](Nc3nc4ccc(F)cc4s3)C2)C1 (stereo partly drawn) [Example 2, 2-(((2S,4s,6S)-6-((6-fluorobenzo[d]thiazol-2-yl)amino)spiro[3.3]heptan-2-yl)oxy)nicotinamide]	156
[H][C@]1(Oc2ncccc2C(N)=O)C[C@@]2(C[C@H](Nc3nccc(N4CC[C@H](F)C4)n3)C2)C1 (stereo partly drawn) [Example 42, 2-(((2S,4r,6S)-6-((4-((S)-3-fluoro-pyrrolidin-1-yl)pyrimidin-2-yl)amino)spiro [3.3]heptan-2-yl)oxy) nicotinamide]	2030
[H][C@]1(Oc2ncccc2C(N)=O)C[C@]2(C[C@@H](Nc3nccc(-c4cccnc4)n3)C2)C1 (stereo partly drawn) [Example 51, 2-(((2S,4s,6S)-6-((4-(pyridin-3-yl)pyrimidin-2-yl)amino)spiro[3.3]heptan-2-yl)oxy) nicotinamide]	414
[H][C@]1(Oc2ncccc2C(N)=O)C[C@]2(C[C@@H](Nc3nccc(-c4cccc(C#N)c4)n3)C2)C1 (stereo partly drawn) [Example 52, 2-(((2S,4s,6S)-6-((4-(3-cyanophenyl)pyrimidin-2-yl)amino)spiro[3.3]heptan-2-yl)oxy) nicotinamide]	87
NC(=O)c1cccnc1O[C@H]1C[C@@]2(C[C@H](Nc3nc(-c4ccccc4F)cs3)C2)C1 (stereo partly drawn) [Example 11, 2-(((2S,4s,6S)-6-((4-(2-fluorophenyl)thiazol-2-yl)amino)spiro [3.3]heptan-2-yl)oxy)nicotinamide]	1160
[H][C@]1(Oc2ncccc2C(N)=O)C[C@]2(C[C@@H](Nc3nccc(N4CCC(F)(F)CC4)n3)C2)C1 (stereo partly drawn) [Example 37, 2-(((2S,4s,6S)-6-((4-(4,4-difluoro-piperidin-1-yl)pyrimidin-2-yl)amino)spiro[3.3]heptan-2-yl)oxy) nicotinamide]	202
NC(=O)c1cccnc1O[C@H]1C[C@@]2(C[C@H](Nc3ncc4cc(F)ccc4n3)C2)C1 (stereo partly drawn) [Example 29, 2-(((2S,4s,6S)-6-((6-fluoro-quinazolin-2-yl)amino)spiro [3.3]heptan-2-yl)oxy) nicotinamide]	141
[H][C@]1(Oc2ncccc2C(N)=O)C[C@]2(C[C@@H](Nc3ccnc(N4CCC(F)(F)CC4)n3)C2)C1 (stereo partly drawn) [Example 61, 2-(((2S,4s,6S)-6-((2-(4,4-difluoro-piperidin-1-yl)pyrimidin-4-yl)amino)spiro[3.3]heptan-2-yl)oxy) nicotinamide]	334
[H][C@]1(Oc2ncccc2C(N)=O)C[C@]2(C[C@@H](Nc3ccnc(-c4cccc(C#N)c4)n3)C2)C1 (stereo partly drawn) [Example 66, 2-(((2S,4s,6S)-6-((2-(3-cyanophenyl)pyrimidin-4-yl)amino)spiro[3.3]heptan-2-yl)oxy)nicotinamide]	1070
[H][C@]1(Oc2ncccc2C(N)=O)C[C@]2(C[C@@H](Nc3ccnc(N4CCCC(F)C4)n3)C2)C1 (stereo partly drawn) [Example 64, 2-(((2S,4s,6S)-6-((2-(3-fluoro-piperidin-1-yl)pyrimidin-4-yl)amino)spiro [3.3]heptan-2-yl)oxy) nicotinamide]	890
NC(=O)c1cccnc1O[C@H]1CC2(C[C@H](Nc3nc4cc(F)c(Br)cc4s3)C2)C1 (stereo partly drawn) [Example 1, 2-(((2S,4s,6S)-6-((6-bromo-5-fluorobenzo[d]thiazol-2-yl)amino)spiro[3.3]heptan-2-yl)oxy)nicotinamide]	547
[H][C@]1(Oc2ncccc2C(N)=O)C[C@]2(C[C@@H](Nc3nccc(-c4ccc(F)cc4)n3)C2)C1 (stereo partly drawn) [Example 47, 2-(((2S,4s,6S)-6-((4-(4-fluorophenyl)pyrimidin-2-yl)amino)spiro[3.3]heptan-2-yl)oxy) nicotinamide]	211
[H][C@]1(Oc2ncccc2C(N)=O)C[C@]2(C[C@@H](Nc3nccc(-c4cccc(F)c4)n3)C2)C1 (stereo partly drawn) [Example 49, 2-(((2S,4s,6S)-6-((4-(3-fluorophenyl)pyrimidin-2-yl)amino)spiro[3.3]heptan-2-yl)oxy) nicotinamide]	149
